# ChEMBL document CHEMBL5543153, “Discovery of a Potent Dual Son of Sevenless 1 (SOS1) and Epidermal Growth Factor Receptor (EGFR) Inhibitor for the Treatment of Prostate Cancer” (J Med Chem, 2024)
# Active and inactive are the calls of the source. No cut-off for these calls is given here.
# What was measured:
# [1] = target: T1, Son of sevenless homolog 1 (Homo sapiens) (UniProt Q07889); assay: Inhibition of human recombinant SOS1 at 10 uM relative to control
# T1 sequence (whole entry): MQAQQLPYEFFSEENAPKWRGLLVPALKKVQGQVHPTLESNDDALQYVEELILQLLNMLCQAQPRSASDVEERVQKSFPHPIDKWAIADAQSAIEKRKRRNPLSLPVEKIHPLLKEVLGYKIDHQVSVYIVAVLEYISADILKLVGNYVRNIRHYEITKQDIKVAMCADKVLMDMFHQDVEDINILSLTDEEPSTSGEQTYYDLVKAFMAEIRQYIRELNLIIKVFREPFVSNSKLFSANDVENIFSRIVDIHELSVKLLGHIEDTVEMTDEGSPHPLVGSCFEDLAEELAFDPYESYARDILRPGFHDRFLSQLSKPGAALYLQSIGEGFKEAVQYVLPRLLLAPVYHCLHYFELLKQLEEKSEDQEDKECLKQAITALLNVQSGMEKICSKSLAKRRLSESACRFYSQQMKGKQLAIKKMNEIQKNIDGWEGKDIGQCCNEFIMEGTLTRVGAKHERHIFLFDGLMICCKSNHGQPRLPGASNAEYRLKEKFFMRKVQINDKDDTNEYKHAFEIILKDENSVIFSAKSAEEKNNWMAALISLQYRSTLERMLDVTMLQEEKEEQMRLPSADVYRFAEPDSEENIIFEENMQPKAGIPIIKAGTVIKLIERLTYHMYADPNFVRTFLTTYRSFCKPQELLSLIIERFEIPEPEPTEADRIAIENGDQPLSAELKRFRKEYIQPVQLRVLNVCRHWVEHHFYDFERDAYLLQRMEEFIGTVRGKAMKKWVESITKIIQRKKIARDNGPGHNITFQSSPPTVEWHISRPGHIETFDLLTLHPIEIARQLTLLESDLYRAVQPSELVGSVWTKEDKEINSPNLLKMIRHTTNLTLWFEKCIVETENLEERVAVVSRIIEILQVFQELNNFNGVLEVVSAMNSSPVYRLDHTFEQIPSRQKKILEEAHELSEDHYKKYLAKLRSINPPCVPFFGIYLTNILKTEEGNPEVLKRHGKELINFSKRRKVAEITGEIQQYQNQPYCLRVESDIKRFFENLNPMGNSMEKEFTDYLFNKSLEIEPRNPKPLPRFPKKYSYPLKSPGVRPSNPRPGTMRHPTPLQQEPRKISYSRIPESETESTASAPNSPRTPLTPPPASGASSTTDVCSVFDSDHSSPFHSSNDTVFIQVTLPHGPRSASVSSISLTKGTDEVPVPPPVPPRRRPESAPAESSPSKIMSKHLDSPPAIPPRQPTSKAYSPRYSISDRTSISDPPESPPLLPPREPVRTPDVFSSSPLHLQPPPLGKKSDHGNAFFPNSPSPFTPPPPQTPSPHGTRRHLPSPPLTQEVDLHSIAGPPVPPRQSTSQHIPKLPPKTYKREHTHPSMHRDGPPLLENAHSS
# [2] = target: Epidermal growth factor receptor (Homo sapiens, UniProt P00533); assay: Inhibition of EGFR (unknown origin) using ultra ULight GT peptide as substrate at 10 uM incubated for 2 hrs relative to control
# PC-3 [3] = assay: cells; type: functional, cell-based; details: Homo sapiens, PC-3, 72 h
# Description: Antiproliferative activity against human PC-3 cells assessed as inhibition of cell growth incubated for 72 hrs by MTT assay
# PC-3 [4] = assay: cells; details: Homo sapiens, PC-3, 72 h
# Description: Synergistic antiproliferative activity against human PC-3 cells assessed as inhibition of cell growth incubated for 72 hrs in presence of gefitinib by MTT assay
# Chain of Epidermal growth factor receptor (P00533 whole entry): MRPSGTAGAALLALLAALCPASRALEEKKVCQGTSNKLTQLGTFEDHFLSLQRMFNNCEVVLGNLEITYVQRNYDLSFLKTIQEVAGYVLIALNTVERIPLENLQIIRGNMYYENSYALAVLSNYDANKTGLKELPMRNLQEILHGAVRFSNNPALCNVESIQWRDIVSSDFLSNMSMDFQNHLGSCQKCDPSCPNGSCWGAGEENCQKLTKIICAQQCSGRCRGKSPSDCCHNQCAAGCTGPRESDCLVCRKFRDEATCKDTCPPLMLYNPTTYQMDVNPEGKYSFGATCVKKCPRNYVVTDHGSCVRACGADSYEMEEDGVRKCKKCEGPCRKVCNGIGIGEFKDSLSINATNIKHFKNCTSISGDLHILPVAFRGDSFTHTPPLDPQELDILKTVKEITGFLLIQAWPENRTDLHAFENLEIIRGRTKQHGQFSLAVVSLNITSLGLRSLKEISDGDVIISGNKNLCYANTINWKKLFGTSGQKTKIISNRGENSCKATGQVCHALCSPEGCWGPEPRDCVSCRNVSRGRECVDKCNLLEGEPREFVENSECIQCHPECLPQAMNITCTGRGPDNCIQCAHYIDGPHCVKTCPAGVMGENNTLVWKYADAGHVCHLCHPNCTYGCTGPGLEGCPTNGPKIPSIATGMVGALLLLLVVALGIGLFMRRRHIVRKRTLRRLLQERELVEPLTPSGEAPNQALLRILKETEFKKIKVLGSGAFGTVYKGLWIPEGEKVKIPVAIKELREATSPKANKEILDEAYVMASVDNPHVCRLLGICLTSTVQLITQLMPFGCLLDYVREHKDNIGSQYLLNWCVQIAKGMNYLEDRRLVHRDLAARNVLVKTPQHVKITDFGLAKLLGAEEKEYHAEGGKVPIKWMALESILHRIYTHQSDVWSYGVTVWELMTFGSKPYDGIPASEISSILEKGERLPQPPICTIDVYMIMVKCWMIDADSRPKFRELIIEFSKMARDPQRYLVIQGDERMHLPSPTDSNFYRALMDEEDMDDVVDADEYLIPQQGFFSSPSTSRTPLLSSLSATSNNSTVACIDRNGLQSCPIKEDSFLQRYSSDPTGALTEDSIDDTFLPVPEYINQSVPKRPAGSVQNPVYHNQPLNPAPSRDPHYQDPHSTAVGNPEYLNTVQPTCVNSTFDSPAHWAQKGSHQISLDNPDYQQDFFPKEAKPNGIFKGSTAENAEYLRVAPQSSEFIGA
inhibition [1],inhibition [2],Compound,IC50 (PC-3 [3]),IC50 (PC-3 [4])
56%,95%,COc1cc2ncnc(NCc3cccc(Cl)c3)c2cc1OC,,
47%,84%,Clc1ccc(CNc2ncnc3ccccc23)cc1,,
inactive,91%,c1ccc2c(Nc3ccc4c(c3)OCO4)ncnc2c1,,
inactive,66%,CCc1cc2c(Nc3ccc(Cl)cc3)ncnc2s1,,

# Second part, the compound before the results:
Compound,inhibition [1],inhibition [2],IC50 (PC-3 [3]),IC50 (PC-3 [4])
c1ccc(Nc2ncnc3sc4c(c23)CCC4)cc1,inactive,70%,,
Clc1cccc(Nc2ncnc3sc4c(c23)CCCC4)c1,inactive,74%,,
CCc1cc2c(Nc3ccc(OC)cc3)ncnc2s1,inactive,64%,,
COc1cc2nc(C)nc(N[C@H](C)c3cc(N)cc(C(F)(F)F)c3)c2cc1O[C@H]1CCOC1,,,8.75 µM,1.37 µM
COc1cc2ncnc(NCc3ccccc3C(F)(F)F)c2cc1OC,43%,90%,,
Cc1sc2ncnc(Nc3ccc(F)cc3)c2c1C,inactive,62%,,
COc1cc2ncnc(NCc3ccc4c(c3)OCO4)c2cc1OC,41%,92%,,
Cc1cccc(Nc2ncnc3c2cnn3C)c1,inactive,73%,,
